Values quoted from earlier work as cited in patent publication US11020390B2, “Bioequivalent pharmaceutical composition of vortioxetine hydrobromide” (UNICHEM LABORATORIES LTD, priority 2017, dated 2021).

solubility in water: relatively poor
Compound: Br.Cc1ccc(Sc2ccccc2N2CCNCC2)c(C)c1 [vortioxetine hydrobromide, 1-[2-(2,4-Dimethyl-phenylsulfanyl)-phenyl]-piperazine, hydrobromide]
